According to the supplement of paper PMC13380429:

Columns and labels:
Settings in all cases: 72 h
Caco-2 [1] = assay: cell viability relative to DMSO; higher = less toxic
Calu-3 [2] = assay: as above
HepG2 [3] = assay: as above
U2OS [4] = assay: as above
Vero E6 [5] = assay: as above
Caco-2 [6] = assay: relative viability EC50 (midpoint between 100% and the lowest measured viability); higher = less toxic
Calu-3 [7] = assay: as above
HepG2 [8] = assay: as above
U2OS [9] = assay: as above
Vero E6 [10] = assay: as above
Caco-2 [11] = assay: drug sensitivity score (DSS) for viability; higher = more toxic; extreme values may be limits of the assay
Calu-3 [12] = assay: as above
HepG2 [13] = assay: as above
U2OS [14] = assay: as above
Vero E6 [15] = assay: as above

SMILES | cell viability (Caco-2 [1]; 1 nM) | cell viability (Caco-2 [1]; 10 nM) | cell viability (Caco-2 [1]; 100 nM) | cell viability (Caco-2 [1]; 1000 nM) | cell viability (Caco-2 [1]; 10000 nM) | cell viability (Calu-3 [2]; 1 nM) | cell viability (Calu-3 [2]; 10 nM) | cell viability (Calu-3 [2]; 100 nM) | cell viability (Calu-3 [2]; 1000 nM) | cell viability (Calu-3 [2]; 10000 nM) | cell viability (HepG2 [3]; 1 nM) | cell viability (HepG2 [3]; 10 nM) | cell viability (HepG2 [3]; 100 nM) | cell viability (HepG2 [3]; 1000 nM) | cell viability (HepG2 [3]; 10000 nM) | cell viability (U2OS [4]; 1 nM) | cell viability (U2OS [4]; 10 nM) | cell viability (U2OS [4]; 100 nM) | cell viability (U2OS [4]; 1000 nM) | cell viability (U2OS [4]; 10000 nM) | cell viability (Vero E6 [5]; 1 nM) | cell viability (Vero E6 [5]; 10 nM) | cell viability (Vero E6 [5]; 100 nM) | cell viability (Vero E6 [5]; 1000 nM) | cell viability (Vero E6 [5]; 10000 nM) | relative viability EC50 (Caco-2 [6]) | relative viability EC50 (Calu-3 [7]) | relative viability EC50 (HepG2 [8]) | relative viability EC50 (U2OS [9]) | relative viability EC50 (Vero E6 [10]) | drug sensitivity score (Caco-2 [11]) | drug sensitivity score (Calu-3 [12]) | drug sensitivity score (HepG2 [13]) | drug sensitivity score (U2OS [14]) | drug sensitivity score (Vero E6 [15])
NC(=O)c1cnccn1 [pyrazinamide] | 104% | 120% | 92.8% | 107% | 89.8% | 99.5% | 100% | 94.2% | 104% | 93% | 103% | 103% | 105% | 97.9% | 103% | 93.7% | 101% | 98% | 104% | 96% | 105% | 93.5% | 106% | 95.3% | 104% | > 10 µM | > 10 µM | > 10 µM | > 10 µM | > 10 µM | 0 | 0 | 0 | 0 | 0
O=C(O)c1cccnc1C(=O)O [quinolinic-acid] | 103% | 110% | 96.8% | 103% | 90.3% | 91.5% | 105% | 97.1% | 100% | 101% | 105% | 99.5% | 97.6% | 102% | 97.8% | 98.2% | 103% | 98.6% | 102% | 97.7% | 108% | 97.4% | 108% | 99.2% | 102% | > 10 µM | > 10 µM | > 10 µM | > 10 µM | > 10 µM | 0 | 0 | 0 | 0 | 0
COC(=O)[C@H]1[C@H]2C[C@@H]3c4[nH]c5cc(OC)ccc5c4CCN3C[C@H]2C[C@@H](OC(=O)c2cc(OC)c(OC)c(OC)c2)[C@@H]1OC [reserpine] | 110% | 90.1% | 96.4% | 91.9% | 101% | 107% | 92.5% | 109% | 102% | 111% | 106% | 93.5% | 81.3% | 96% | 96.6% | 98% | 97.7% | 95.8% | 94.8% | 99.2% | 112% | 95.2% | 96.6% | 104% | 97.1% | > 10 µM | > 10 µM | > 10 µM | > 10 µM | > 10 µM | 0 | 0 | 0 | 0 | 0
